In patent US20020004058A1, “Immunomodulating and antiinflammatory agent” (priority 1993, published 2002):

How the values were obtained:
[1] = test system: anti-TNP antibody production; assay: Production of a TNP-specific antibody (anti-TNP IgM and IgG, ELISA) in mice sensitized with TNP-SRBC; assay type: in vivo, male BALB/c mice; conditions: hypodermic injection four days from sensitization
Method: (§1) Trinitrobenzenesulfonic acid (TNBS) was dissolved in a physiological saline solution buffered with phosphoric acid to prepare a solution (40 mg/7.0 ml; pH 7.2) and then 1 ml of sheep red cell pellets was dropped thereinto with stirring. The mixture was allowed to stand at room temperature with stirring for several times under a light-shielding state and washed with a physiological saline solution three times. Then it was centrifuged at 3,000 rpm for five minutes and made into a solution of 5×10^9 cells/ml using a physiological saline solution.
TNP-SRBC (10^9 cells) was intraperitoneally administered to male BALB/c mice of six to eight weeks age and the anti-TNP antibody in serum was measured by an enzymatic immunoassay (ELISA) using a dinitrophenyl-bovine serum albumin (DNP-BSA).
(§2) The above-mentioned test system was used for checking the action of: (a) the histamine-added mouse gamma-globulin (150 mg/kg/day) (the product of the present invention), (b) cyclosporin A (100 mg/kg/day), (c) cyclophosphamide (100 mg/kg/day), (d) prednisolone ([…]) and (e) levamizole (5 mg/kg/day) towards the anti-TNP antibody production and to the TNP-specific DTH reaction. The drugs were administered by hypodermic injection four days from the sensitization with TNP-SRBC.

[2] = test system: TNP-specific DTH reaction; assay: TNP-specific DTH reaction (paw swelling) in mice sensitized with TNP-SRBC; assay type: in vivo, male BALB/c mice; conditions: for Swelling in Paws After 24 Hrs.: difference right/left paw 24 hours after TNB induction on day 14; for Swelling in Paws After 24 Hrs. / Swelling in Paws After 48 Hrs.: drugs by hypodermic injection four days from sensitization; for Swelling in Paws After 48 Hrs.: difference right/left paw 48 hours after TNB induction on day 14; for action to the delayed type hypersensitivity (DTH), in words: hypodermic injection four days from sensitization
Method: as §1
The mice were sensitized with TNP-SRBC as described in paragraph (2) above. On the 14th day, 0.025 ml of TNB (4.7 mg/ml) was injected into the right hind paw to induce a TNP-specific DTH reaction. After 24 hours and 48 hours from the induction, the thickness of both paws was measured using a dial gauge. The difference in the thickness between the right and left paws was expressed as the intensity of the DTH reaction. […] This measuring system for the DTH reaction can be subjected to further tests using the same mice as in the case of the antibody production system of paragraph (2) above.
as §2

[3] = test system: eosinophils exudated to peritoneum; assay: Hypereosinophilic model induced by platelet activating factor (PAF); assay type: in vivo, female BALB/c mice
Method: A PAF (5 micrograms/200 microliters) was intraperitoneally injected into female BALB/c mice of six to eight weeks age to induce the reaction. After 24 hours from the induction, the peritoneal exudate cells were recovered and the number of the eosinophils were counted.

[4] = test system: eosinophils exudated to peritoneum; assay: Hypereosinophilic model induced by ragweed pollen antigen; assay type: in vivo, female BALB/c mice
Method: A ragweed pollen extract (which was diluted to an extent of 1,000 times using a physiological saline solution) was hypodermically injected into female BALB/c mice of six to eight weeks age for sensitization at the dose of 0.1 ml on the initiation day and on the first day and 0.2 ml on the sixth, eighth and fourteenth days. On the twentieth day, 0.2 ml of a 1,000 times diluted ragweed antigen was intraperitoneally injected into the mice to induce the reaction. On the 24th hour after the induction, the peritoneal exudate cells were recovered and subjected to a Giemsa staining and the total cell numbers, number of eosinophils, number of neutrophils and number of mononuclear cells were counted. As a result, the number of the eosinophils peaked 24 hours after the induction. […] The above-mentioned hypereosinophilic models were used for checking the action towards the hypereosinophilicity by a hypodermic injection of the product of the present invention. Thus, histamine-added mouse gamma-globulin, at a dose of 3 mg/mouse/day twice a week for three weeks was administered until the induced day. Further tests were conducted by administering the corresponding amount of each of histamine (dihydrochloride) and mouse gamma-globulin which are the constituting components of the histamine-added mouse gamma-globulin.

Row | SMILES | action upon anti-TNP IgG antibody production (FIG. 2), in words [1] | action upon anti-TNP IgM antibody production (FIG. 1), in words [1] | Swelling in Paws After 24 Hrs. [2] | Swelling in Paws After 48 Hrs. [2] | action to the delayed type hypersensitivity (DTH), in words [2] | Number of Exudated Eosinophils to Peritoneum ([3]; PAF 5 micrograms i.p., 24 hours after induction) | suppressive action upon hypereosinophilicity induced by PAF, in words ([3]; same manner of administration as ragweed model) | Number of Eosinophils Exudated to Peritoneum ([4]; ragweed antigen induced, 24 h after induction, product 3 mg/mouse/day s.c. twice a week for three weeks, components in corresponding amount, cyclosporin A 100 mg/kg/day three days) | suppression of eosinophil exudation into peritoneum, ragweed pollen antigen model, in words ([4]; twice a week for three weeks until the induced day)
1 | O=P1(N(CCCl)CCCl)NCCCO1 (stereo not shown) [Cyclophosphamide, cyclophosphamide] | significantly suppressed | significantly suppressed | 13.3 ± 2.1 ×10^−2 mm | 15.8 ± 2.4 ×10^−2 mm | clear suppressive actions | – | – | – | –
2 | Cl.Cl.NCCc1c[nH]cn1 [Histamine, histamine (dihydrochloride)] | – | – | – | – | – | 2.2 ± 0.8 ×10^5 cells | not observed | 3.4 ± 0.6 ×10^5 cells | not observed
3 | C[C@]12C=CC(=O)C=C1CC[C@@H]1[C@@H]2[C@@H](O)C[C@@]2(C)[C@H]1CC[C@]2(O)C(=O)CO [Prednisolone, prednisolone] | did not significantly affect | did not significantly affect | 30.0 ± 5.6 ×10^−2 mm | 8.3 ± 3.3 ×10^−2 mm | weak suppressive action | – | – | – | –
4 | c1ccc([C@H]2CN3CCSC3=N2)cc1 [Lavamizole, levamizole] | did not significantly affect | did not significantly affect | 40.0 ± 6.5 ×10^−2 mm | 20.0 ± 5.0 ×10^−2 mm | no significant effect | – | – | – | –
